Source: patent publication US9540343B2 (Gilead Sciences, Inc., priority 2011, dated 2017)

Assays:
in vitro = settings: human, uninfected MT-4 cells, CC50 (nM), same protocol as Test A, CellTiter-Glo
Procedure: For the antiviral assay, 40 μL of 1× test concentration of 3-fold serially diluted compound in culture medium with 10% FBS was added to each well of a 384-well plate (10 concentrations) in quadruplicate. MT-4 cells were next mixed with HIV-IIIb at an m.o.i of 0.003 for 1 hour, after which time 35 μL of virus/cell mixture (2000 cells) was immediately added to each well containing 40 μL of diluted compound. The plates were then incubated at 37° C. for 5 days. After 5 days of incubation, 25 μl of 2× concentrated CellTiter-Glo™ Reagent (catalog #G7571, Promega Biosciences, Inc., Madison, Wis.) was added to each well containing MT-4 cells. Cell lysis was carried out by incubating at room temperature for 10 min and then chemiluminescence was read.
Test B: Cytotoxicity Assay
Compound cytotoxicity and the corresponding CC50 values was determined using the same protocol as described in the antiviral assay (Test A) except that uninfected cells were used.

HIV-IIIb = assay: Test A: Antiviral assay in MT4 cells; type: cell-based, HIV-1; settings: Human immunodeficiency virus 1, IIIB, MT4, 120 h, read-out: % inhibition at 2 μM, percent inhibition of virus-induced cell killing, from dose response curve at 2 uM drug; MT-4 cells infected with HIV-IIIb, 5 days, CellTiter-Glo

Row | SMILES | CC50 at 5 days (in vitro) [nM] | inhibition at 2 µM (HIV-IIIb) [%]
1 | NS(=O)(=O)c1cccc(-c2cccnc2[C@H](Cc2cc(F)cc(F)c2)NC(=O)Cc2c[nH]c3ccc(O)cc23)c1 [Example 44, (S)—N-(2-(3,5-difluorophenyl)-1-(3-(3-sulfamoylphenyl)pyridin-2-yl)ethyl)-2-(5-hydroxy-1H-indol-3-yl)acetamide] | > 52500 | 96
2 | CNC(=O)c1ccc(-c2cccnc2[C@H](Cc2cc(F)cc(F)c2)NC(=O)Cc2c[nH]c3ccc(O)cc23)cc1 [Example 45, (S)-4-(2-(2-(3,5-difluorophenyl)-1-(2-(5-hydroxy-1H-indol-3-yl)acetamido)ethyl)pyridin-3-yl)-N-methylbenzamide] | > 53000 | 32
3 | CNC(=O)c1cccc(-c2cccnc2[C@H](Cc2cc(F)cc(F)c2)NC(=O)Cc2c[nH]c3ccc(O)cc23)c1 [Example 46, (S)-3-(2-(2-(3,5-difluorophenyl)-1-(2-(5-hydroxy-1H-indol-3-yl)acetamido)ethyl)pyridin-3-yl)-N-methylbenzamide] | > 53000 | 87
4 | CN(C)C(=O)c1ccc(-c2cccnc2[C@H](Cc2cc(F)cc(F)c2)NC(=O)Cc2c[nH]c3ccc(O)cc23)cc1 [Example 47, (S)-4-(2-(2-(3,5-difluorophenyl)-1-(2-(5-hydroxy-1H-indol-3-yl)acetamido)ethyl)pyridin-3-yl)-N,N-dimethylbenzamide] | > 53000 | 59
5 | CN(C)C(=O)c1cccc(-c2cccnc2[C@H](Cc2cc(F)cc(F)c2)NC(=O)Cc2c[nH]c3ccc(O)cc23)c1 [Example 48, (S)-3-(2-(2-(3,5-difluorophenyl)-1-(2-(5-hydroxy-1H-indol-3-yl)acetamido)ethyl)pyridin-3-yl)-N,N-dimethylbenzamide] | > 53000 | 74
6 | O=C(Cc1c[nH]c2ccc(O)cc12)N[C@@H](Cc1cc(F)cc(F)c1)c1ncccc1-c1cccc(-c2nnn[nH]2)c1 [Example 49] | 562 | 0
7 | NC(=O)c1cccc(-c2cccnc2[C@H](Cc2cc(F)cc(F)c2)NC(=O)Cc2c[nH]c3ccc(=O)[nH]c23)c1 [Example 51, (S)-3-(2-(2-(3,5-difluorophenyl)-1-(2-(5-oxo-4,5-dihydro-1H-pyrrolo[3,2-b]pyridin-3-yl)acetamido)ethyl)pyridin-3-yl)benzamide] | > 53000 | 52
8 | CC1CCCc2c(C(F)(F)F)nn(CC(=O)N[C@@H](Cc3cc(F)cc(F)c3)c3ncccc3-c3cccc(C(N)=O)c3)c21 (stereo partly drawn) [Example 52, 3-(2-((1S)-2-(3,5-difluorophenyl)-1-(2-(7-methyl-3-(trifluoromethyl)-4,5,6,7-tetrahydro-1H-indazol-1-yl)acetamido)ethyl)pyridin-3-yl)benzamide] | 13300 | 92
9 | O=C(Cc1c[nH]c2ccc(O)cc12)N[C@@H](Cc1cc(F)cc(F)c1)c1ncccc1C#CC1CC1 [Example 53, (S)—N-(1-(3-(cyclopropylethynyl)pyridin-2-yl)-2-(3,5-difluorophenyl)ethyl)-2-(5-hydroxy-1H-indol-3-yl)acetamide] | 28300 | 33
10 | NC(=O)c1cc(-c2cccnc2[C@H](Cc2cc(F)cc(F)c2)NC(=O)Cc2c[nH]c3ccc(C(F)(F)F)cc23)ccc1F [Example 54G, (S)-5-(2-(2-(3,5-difluorophenyl)-1-(2-(5-(trifluoromethyl)-1H-indol-3-yl)acetamido)ethyl)pyridin-3-yl)-2-fluorobenzamide] | 10300 | 111
11 | NC(=O)c1cc(-c2cccnc2[C@H](Cc2cc(F)cc(F)c2)NC(=O)Cc2c[nH]c3ccc(F)cc23)ccc1F [Example 55F, (S)-5-(2-(2-(3,5-difluorophenyl)-1-(2-(5-fluoro-1H-indol-3-yl)acetamido)ethyl)pyridin-3-yl)-2-fluorobenzamide] | 21600 | 101
12 | NC(=O)c1cc(-c2cccnc2[C@H](Cc2cc(F)cc(F)c2)NC(=O)Cn2ccc3ccc4ccccc4c32)ccc1F [Example 56B, (S)-5-(2-(1-(2-(1H-benzo[g]indol-1-yl)acetamido)-2-(3,5-difluorophenyl)ethyl)pyridin-3-yl)-2-fluorobenzamide] | 18900 | 4
13 | CS(=O)(=O)c1cccc(-c2cccnc2[C@H](Cc2cc(F)cc(F)c2)NC(=O)Cn2nc(C(F)(F)F)c3c2CCCC3)c1 [Example 57B, (S)—N-(2-(3,5-difluorophenyl)-1-(3-(3-(methylsulfonyl)phenyl)pyridin-2-yl)ethyl)-2-(3-(trifluoromethyl)-4,5,6,7-tetrahydro-1H-indazol-1-yl)acetamide] | 13300 | 98
14 | CCc1c(Br)c(C(F)(F)F)nn1CC(=O)N[C@@H](Cc1cc(F)cc(F)c1)c1ncccc1-c1ccc(F)c(C(N)=O)c1 [Example 58D, (S)-5-(2-(1-(2-(4-bromo-5-ethyl-3-(trifluoromethyl)-1H-pyrazol-1-yl)acetamido)-2-(3,5-difluorophenyl)ethyl)pyridin-3-yl)-2-fluorobenzamide] | 10000 | 14
15 | Cc1cc(C)c2c(c1)NC(=O)C2CC(=O)N[C@@H](Cc1cccc(F)c1)c1ncccc1-c1ccc(F)c(C(N)=O)c1 (stereo partly drawn) [Example 59E, 5-(2-((1S)-1-(2-(4,6-dimethyl-2-oxoindolin-3-yl)acetamido)-2-(3-fluorophenyl)ethyl)pyridin-3-yl)-2-fluorobenzamide] | 45100 | 75
16 | O=C(Cn1nc(C(F)(F)F)cc1C1CC1)N[C@@H](Cc1cc(F)cc(F)c1)c1ncccc1-c1cnc2[nH]ccc2c1 [Example 61F, (S)—N-(1-(3-(1H-pyrrolo[2,3-b]pyridin-5-yl)pyridin-2-yl)-2-(3,5-difluorophenyl)ethyl)-2-(5-cyclopropyl-3-(trifluoromethyl)-1H-pyrazol-1-yl)acetamide] | 17900 | 74
17 | O=C(Cn1nc(C(F)(F)F)c2c1CCCC2)N[C@@H](Cc1cc(F)cc(F)c1)c1ncccc1-c1cccc(C(=O)NC2CC2)c1 [Example 62, (S)—N-cyclopropyl-3-(2-(2-(3,5-difluorophenyl)-1-(2-(3-(trifluoromethyl)-4,5,6,7-tetrahydro-1H-indazol-1-yl)acetamido)ethyl)pyridin-3-yl)benzamide] | 9980 | 80
18 | CNC(=O)c1cc(F)cc(-c2cccnc2[C@H](Cc2cc(F)cc(F)c2)NC(=O)Cc2c[nH]c3ccc(F)cc23)c1 [Example 63, (S)-3-(2-(2-(3,5-difluorophenyl)-1-(2-(5-fluoro-1H-indol-3-yl)acetamido)ethyl)pyridin-3-yl)-5-fluoro-N-methylbenzamide] | 14800 | 22
19 | COc1ccc(-c2cccnc2[C@H](Cc2cc(F)cc(F)c2)NC(=O)Cc2c[nH]c3ccc(F)cc23)cn1 [Example 64, (S)—N-(2-(3,5-difluorophenyl)-1-(6′-methoxy-3,3′-bipyridin-2-yl)ethyl)-2-(5-fluoro-1H-indol-3-yl)acetamide] | 21100 | 88
